The conditions of data set [1]: human, microsomes.
The nature of data set [2]: in vivo. To be noted: Sprague-Dawley, rat, po, 5 mg/kg.
Data set [3] is described as follows: in vivo. The following applies: Sprague-Dawley, rat, po, 5 mg/kg. The source holds these as a separate data set.
The nature of data set [4]: in vivo. The following applies: Sprague-Dawley, rat, po, 5 mg/kg. The source holds these as a separate data set.
Data set [5] in a line: in vivo. The following applies: Sprague-Dawley, rat, po, 5 mg/kg. This is another data set of the same source.
A short description of data set [6]: in vivo. To be noted: Sprague-Dawley, rat, po, 5 mg/kg. This is another data set of the same source.

Molecules are shown by their SMILES.

The values that follow come from ChEMBL document CHEMBL5038661, “Identification of a Novel 2,8-Diazaspiro[4.5]decan-1-one Derivative as a Potent and Selective Dual TYK2/JAK1 Inhibitor for the Treatment of Inflammatory Bowel Disease” (J Med Chem, 2022).

For `[2H]C([2H])([2H])n1cc(Nc2ncc(C)c(N3CCC4(CCNC4=O)CC3)n2)cn1`, the Stability result in data set [1] is “Unstable”.
The compound `Cc1cnc(Nc2cnn(C)c2)nc1N1CCC2(CCNC2=O)CC1` gave a half-life at 24 h in the data set “in vivo [2]” of 2.8 h. Also, in the data set “in vivo [3]”, the area under the curve AUC(0-t) is 2100 ng·h/mL. The compound also had an apparent clearance CL/F at 24 h in the data set “in vivo [4]” of 41.5 mL/min/kg. Besides, in data set [1], the Stability result is recorded as “Stable”. In the data set “in vivo [5]”, this compound showed a Cmax at 24 h of 415 ng/mL. Moreover, the bioavailability at 24 h in the data set “in vivo [6]” was found to be 59.3%.

Usually half-life stands for the time in which the quantity being followed falls by half. High values mean slow loss, low ones fast loss. The AUC(0-t) is exposure summed from dosing to a finite time, without extrapolation to infinity. High values mean more exposure, low ones less exposure. As a reminder, the CL/F is clearance divided by bioavailability, as obtained after extravascular dosing. As a reminder, the Cmax is the highest concentration seen after dosing. A word on the bioavailability: it is dose-corrected exposure relative to a reference, in per cent.
